Assays:
[1] = tested on: a variety of test species; experiment: Pre-emergence herbicidal activity (glasshouse, sprayed one day after sowing, evaluated after 13 days); type: in vivo; set-up: key: 5=total damage to plant; 0=no damage to plant; settings: application pre-emergence, rate 1000 g/Ha, scale 0-5
Protocol: Seeds of a variety of test species were sown in standard soil in pots. After cultivation for one day (pre-emergence) under controlled conditions in a glasshouse (at 24/16° C., day/night; 14 hours light; 65% humidity), the plants were sprayed with an aqueous spray solution derived from the formulation of the technical active ingredient in acetone/water (50:50) solution containing 0.5% Tween 20 (polyoxyethelyene sorbitan monolaurate, CAS RN 9005-64-5). The test plants were then grown in a glasshouse under controlled conditions (at 24/16° C., day/night; 14 hours light; 65% humidity) and watered twice daily. After 13 days, the test was evaluated (5=total damage to plant; 0=no damage to plant).

[2] = tested on: a variety of test species; experiment: Post-emergence herbicidal activity (glasshouse, sprayed after 8 days cultivation, evaluated after 13 days); type: in vivo; set-up: key: 5=total damage to plant; 0=no damage to plant; settings: rate 1000 g/Ha, scale 0-5
Protocol: Seeds of a variety of test species were sown in standard soil in pots. After 8 days cultivation (post-emergence) under controlled conditions in a glasshouse (at 24/16° C., day/night; 14 hours light; 65% humidity), the plants were sprayed with an aqueous spray solution derived from the formulation of the technical active ingredient in acetone/water (50:50) solution containing 0.5% Tween 20 (polyoxyethelyene sorbitan monolaurate, CAS RN 9005-64-5). The test plants were then grown in a glasshouse under controlled conditions (at 24/16° C., day/night; 14 hours light; 65% humidity) and watered twice daily. After 13 days, the test was evaluated (5=total damage to plant; 0=no damage to plant).

Row | Structure (SMILES) | Pre-emergence herbicidal damage score, ABUTH [1] | Pre-emergence herbicidal damage score, ALOMY [1] | Pre-emergence herbicidal damage score, AMARE [1] | Pre-emergence herbicidal damage score, ECHCG [1] | Pre-emergence herbicidal damage score, SETFA [1] | Pre-emergence herbicidal damage score, ZEAMX [1] | ABUTH (Abutilon theophrasti) damage score, application post-emergence [2] | ALOMY (Alopecurus myosuroides) damage score, application post-emergence [2] | AMARE (Amaranthus retroflexus) damage score, application post-emergence [2] | ECHCG (Echinochloa crus-galli) damage score, application post-emergence [2] | SETFA (Setaria faberi) damage score, application post-emergence [2] | ZEAMX (Zea mays) damage score, application post-emergence [2]
1 | CC1=C(Br)C(=O)N(c2cc(C(C)(C)C)on2)C1O (stereo not drawn) [A1] | 5 | 2 | 5 | 4 | 5 | 1 | 5 | 5 | 5 | 5 | 5 | 4
2 | CC1=C(Br)C(=O)N(c2cc(C)on2)C1O (stereo not drawn) [A3] | 5 | 3 | 5 | 3 | 5 | 2 | 5 | 4 | 5 | 5 | 5 | 3
3 | CC1=C(Cl)C(=O)N(c2cc(C)on2)C1O (stereo not drawn) [A4] | 5 | 3 | 5 | 4 | 5 | 2 | 5 | 4 | 5 | 5 | 5 | 3
4 | CC1=C(Br)C(=O)N(c2cc(C(F)(F)F)on2)C1O (stereo not drawn) [A6] | 0 | 1 | 0 | 1 | 1 | 0 | 4 | 2 | 4 | 3 | 2 | 0
5 | COCC(C)(C)c1cc(N2C(=O)C(Cl)=C(C)C2O)no1 (stereo not drawn) [A7] | 5 | 3 | 5 | 4 | 4 | 2 | 5 | 5 | 4 | 5 | 5 | 5
6 | COCC(C)(C)c1cc(N2C(=O)C(Br)=C(C)C2O)no1 (stereo not drawn) [A8] | 5 | 3 | 5 | 4 | 4 | 1 | 5 | 5 | 3 | 5 | 5 | 3
7 | CC1=C(Cl)C(=O)N(c2cc(C(C)(C)C)on2)[C@H]1O [A9] |  |  |  |  |  |  | 5 | 4 | 5 | 5 | 5 | 5
8 | CC1=C(Cl)C(=O)N(c2cc(C(C)(C)C)on2)[C@H]1O [A10] |  |  |  |  |  |  |  |  | 5 | 5 | 5 | 
9 | CCC1=C(I)C(=O)N(c2cc(C(C)(C)C)on2)C1O (stereo not drawn) [A13] | 3 | 3 | 5 | 3 | 3 | 1 | 5 | 5 | 5 | 5 | 5 | 2
10 | CCC1=C(Br)C(=O)N(c2cc(C(C)(C)C)on2)C1O (stereo not drawn) [A14] | 5 | 3 | 5 | 4 | 5 | 2 | 5 | 5 | 4 | 5 | 5 | 4
11 | CC(C)(C)c1cc(N2C(=O)C(Cl)=C(C3CC3)C2O)no1 (stereo not drawn) [A15] | 5 | 2 | 5 | 4 | 3 | 2 | 5 | 4 | 5 | 5 | 5 | 3
12 | CCC1=C(Cl)C(=O)N(c2cc(C(C)(C)C)on2)C1O (stereo not drawn) [A16] | 5 | 4 | 5 | 5 | 5 | 3 | 5 | 5 | 5 | 5 | 5 | 5
13 | CC1=C(I)C(=O)N(c2cc(C(C)(C)C)on2)[C@H]1O [A17] | 3 | 2 | 5 | 5 | 3 | 2 | 5 | 5 | 5 | 5 | 5 | 4
14 | CC(C)C1=C(Cl)C(=O)N(c2cc(C(C)(C)C)on2)C1O (stereo not drawn) [A18] | 4 | 4 | 1 | 2 | 3 | 1 | 5 | 5 | 4 | 5 | 5 | 3
15 | CCCC1=C(Cl)C(=O)N(c2cc(C(C)(C)C)on2)C1O (stereo not drawn) [A27] | 5 | 4 | 5 | 5 | 4 | 4 | 5 | 5 | 5 | 5 | 5 | 4

Source: patent US9936701B2, “Herbicidal compounds” (Syngenta Participations AG, priority 2013, dated 2018)
